Assay results as given in patent US20210045385A1, “PYRIDAZINONE-SUBSTITUTED KETOXIMES AS HERBICIDES” (FMC Corporation, priority 2018, published 2021).

Legend:
Assay type in all cases: in vivo
[1] = tested on: barnyardgrass (Echinochloa crus-galli); test: Test A preemergence, visual plant response rating; details: for Barnyardgrass plant response rating: 125 g ai/ha, preemergence, 0 to 100 scale, 0 no effect, 100 complete control; for Barnyardgrass plant response rating (0 to 100 scale): 500 g ai/ha Preemergence, approx. 10 days
Procedure, shortened: (§1)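 Formulated in a non-phytotoxic solvent mixture including surfactant, each test chemical was sprayed onto the soil surface after sowing, or onto seedlings 2 to 10 cm high. Roughly 10 days later, plants were compared with untreated controls and rated for injury from 0 (no effect) to 100 (complete control).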

[2] = tested on: kochia (Kochia scoparia); test: Test A preemergence, visual plant response rating; details: for Kochia plant response rating: 125 g ai/ha, preemergence, 0 to 100 scale, 0 no effect, 100 complete control; for Kochia plant response rating (0 to 100 scale): 500 g ai/ha Preemergence, approx. 10 days
Procedure, shortened: as §1

[3] = tested on: ragweed (common ragweed, Ambrosia elatior); test: Test A preemergence, visual plant response rating; details: for Ragweed plant response rating: 125 g ai/ha, preemergence, 0 to 100 scale, 0 no effect, 100 complete control; for Ragweed plant response rating (0 to 100 scale): 500 g ai/ha Preemergence, approx. 10 days
Procedure, shortened: as §1

[4] = tested on: pigweed (Amaranthus retroflexus); test: Test A preemergence, visual plant response rating; details: for Pigweed plant response rating: 125 g ai/ha, preemergence, 0 to 100 scale, 0 no effect, 100 complete control; for Pigweed plant response rating (0 to 100 scale): 500 g ai/ha Preemergence, approx. 10 days
Procedure, shortened: as §1

[5] = tested on: foxtail, giant (giant foxtail, Setaria faberii); test: Test A preemergence, visual plant response rating; details: for Foxtail, Giant plant response rating: 125 g ai/ha, preemergence, 0 to 100 scale, 0 no effect, 100 complete control; for Foxtail, Giant plant response rating (0 to 100 scale): 500 g ai/ha Preemergence, approx. 10 days
Procedure, shortened: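 Compared with untreated controls, treated plants received a visual injury score on a 0–100 scale around 10 days after application. The compound, in a non-phytotoxic solvent with surfactant, was given as a preemergence soil spray or postemergence at the one- to two-leaf stage.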

[6] = tested on: Italian ryegrass (Lolium multiflorum); test: Test A preemergence, visual plant response rating; details: for Ryegrass, Italian plant response rating: 125 g ai/ha, preemergence, 0 to 100 scale, 0 no effect, 100 complete control; for Ryegrass, Italian plant response rating (0 to 100 scale): 500 g ai/ha Preemergence, approx. 10 days
Procedure, shortened: as §1

[7] = tested on: rice (Oryza sativa); test: Test B flooded paddy test, visual plant response rating; details: 250 g ai/ha, Flood, applied to paddy water, 2-leaf stage, evaluated after 13 to 15 days
Procedure, shortened: (§2)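 Greenhouse paddy conditions applied: two-leaf plants, a 3 cm flood above the soil surface maintained throughout, and compound added to the water rather than the foliage. Plants were judged visually against controls at 13 to 15 days.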

[8] = tested on: barnyardgrass (Echinochloa crus-galli); test: as above; details: 250 g ai/ha, Flood, applied to paddy water, 2-leaf stage, evaluated after 13 to 15 days
Procedure, shortened: as §2

[9] = tested on: ducksalad (Heteranhera limosa); test: as above; details: 250 g ai/ha, Flood, applied to paddy water, 2-leaf stage, evaluated after 13 to 15 days
Procedure, shortened: as §2

[10] = tested on: sedge, umbrella (small-flower umbrella sedge, Cyperus difformis); test: as above; details: 250 g ai/ha, Flood, applied to paddy water, 2-leaf stage, evaluated after 13 to 15 days
Procedure, shortened: as §2

[11] = tested on: corn (Zea mays); test: Test A postemergence, visual plant response rating; details: for Corn plant response rating (0 to 100 scale): 500 g ai/ha, postemergence, 0 is no effect, 100 is complete control; for Corn plant response rating: Postemergence, 125 g ai/ha, 0 to 100 scale (0 no effect, 100 complete control)
Procedure, shortened: as §1

[12] = tested on: galium (catchweed bedstraw, Galium aparine); test: Test A postemergence, visual plant response rating; details: for Galium plant response rating (0 to 100 scale): 500 g ai/ha, postemergence, 0 is no effect, 100 is complete control; for Galium plant response rating: Postemergence, 125 g ai/ha, 0 to 100 scale (0 no effect, 100 complete control)
Procedure, shortened: as §1

[13] = tested on: barnyardgrass (Echinochloa crus-galli); test: Test A postemergence, visual plant response rating; details: for Barnyardgrass plant response rating (0 to 100 scale): 500 g ai/ha, postemergence, 0 is no effect, 100 is complete control; for Barnyardgrass plant response rating: Postemergence, 125 g ai/ha, 0 to 100 scale (0 no effect, 100 complete control)
Procedure, shortened: as §1

[14] = tested on: wheat (Triticum aestivum); test: Test A postemergence, visual plant response rating; details: for Wheat plant response rating (0 to 100 scale): 500 g ai/ha, postemergence, 0 is no effect, 100 is complete control; for Wheat plant response rating: Postemergence, 125 g ai/ha, 0 to 100 scale (0 no effect, 100 complete control)
Procedure, shortened: as §1

[15] = tested on: kochia (Kochia scoparia); test: Test A postemergence, visual plant response rating; details: for Kochia plant response rating (0 to 100 scale): 500 g ai/ha, postemergence, 0 is no effect, 100 is complete control; for Kochia plant response rating: Postemergence, 125 g ai/ha, 0 to 100 scale (0 no effect, 100 complete control)
Procedure, shortened: as §1

[16] = tested on: ragweed (common ragweed, Ambrosia elatior); test: Test A postemergence, visual plant response rating; details: for Ragweed plant response rating (0 to 100 scale): 500 g ai/ha, postemergence, 0 is no effect, 100 is complete control; for Ragweed plant response rating: Postemergence, 125 g ai/ha, 0 to 100 scale (0 no effect, 100 complete control)
Procedure, shortened: as §1

[17] = tested on: pigweed (Amaranthus retroflexus); test: Test A postemergence, visual plant response rating; details: for Pigweed plant response rating (0 to 100 scale): 500 g ai/ha, postemergence, 0 is no effect, 100 is complete control; for Pigweed plant response rating: Postemergence, 125 g ai/ha, 0 to 100 scale (0 no effect, 100 complete control)
Procedure, shortened: as §1

[18] = tested on: blackgrass (Alopecurus myosuroides); test: Test A postemergence, visual plant response rating; details: for Blackgrass plant response rating (0 to 100 scale): 500 g ai/ha, postemergence, 0 is no effect, 100 is complete control; for Blackgrass plant response rating: Postemergence, 125 g ai/ha, 0 to 100 scale (0 no effect, 100 complete control)
Procedure, shortened: as §1

[19] = tested on: foxtail, giant (giant foxtail, Setaria faberii); test: Test A postemergence, visual plant response rating; details: for Foxtail, Giant plant response rating (0 to 100 scale): 500 g ai/ha, postemergence, 0 is no effect, 100 is complete control; for Foxtail, Giant plant response rating: Postemergence, 125 g ai/ha, 0 to 100 scale (0 no effect, 100 complete control)
Procedure, shortened: as §1

[20] = tested on: Italian ryegrass (Lolium multiflorum); test: Test A postemergence, visual plant response rating; details: for Ryegrass, Italian plant response rating (0 to 100 scale): 500 g ai/ha, postemergence, 0 is no effect, 100 is complete control; for Ryegrass, Italian plant response rating: Postemergence, 125 g ai/ha, 0 to 100 scale (0 no effect, 100 complete control)
Procedure, shortened: as §1

Row | SMILES | Barnyardgrass plant response rating [1] | Barnyardgrass plant response rating (0 to 100 scale) [1] | Kochia plant response rating [2] | Kochia plant response rating (0 to 100 scale) [2] | Ragweed plant response rating [3] | Ragweed plant response rating (0 to 100 scale) [3] | Pigweed plant response rating [4] | Pigweed plant response rating (0 to 100 scale) [4] | Foxtail, Giant plant response rating [5] | Foxtail, Giant plant response rating (0 to 100 scale) [5] | Ryegrass, Italian plant response rating [6] | Ryegrass, Italian plant response rating (0 to 100 scale) [6] | Plant response rating, Rice (0 to 100 scale, 0 is no effect, 100 is complete control) [7] | Plant response rating, Barnyardgrass (0 to 100 scale, 0 is no effect, 100 is complete control) [8] | Plant response rating, Ducksalad (0 to 100 scale, 0 is no effect, 100 is complete control) [9] | Plant response rating, Sedge, Umbrella (0 to 100 scale, 0 is no effect, 100 is complete control) [10] | Corn plant response rating (0 to 100 scale) [11] | Corn plant response rating [11] | Galium plant response rating (0 to 100 scale) [12] | Galium plant response rating [12] | further results
1 | CCCO/N=C(\c1c(O)c(C)nn(C)c1=O)c1cccc2ccccc12 [Compound 80] | 60 | 80 | 0 | 10 | 50 | 100 | 20 | 100 | 60 | 100 | 10 | 30 | 0 | 0 | 0 | 0 | 20 | 10 | 90 | 80 | Barnyardgrass plant response rating (0 to 100 scale) [13]: 60; Barnyardgrass plant response rating [13]: 50; Wheat plant response rating (0 to 100 scale) [14]: 0; Wheat plant response rating [14]: 0; Kochia plant response rating (0 to 100 scale) [15]: 60; Kochia plant response rating [15]: 30; Ragweed plant response rating (0 to 100 scale) [16]: 90; Ragweed plant response rating [16]: 80; Pigweed plant response rating (0 to 100 scale) [17]: 80; Pigweed plant response rating [17]: 70; Blackgrass plant response rating (0 to 100 scale) [18]: 90; Blackgrass plant response rating [18]: 70; Foxtail, Giant plant response rating (0 to 100 scale) [19]: 80; Foxtail, Giant plant response rating [19]: 60; Ryegrass, Italian plant response rating (0 to 100 scale) [20]: 70; Ryegrass, Italian plant response rating [20]: 20
2 | CCCO/N=C(/c1c(O)c(C)nn(C)c1=O)c1cccc2ccccc12 [Compound 81] | 60 | 70 | 10 | 10 | 90 | 100 | 20 | 100 | 60 | 100 | 20 | 50 | 0 | 0 | 0 | 0 | 20 | 20 | 90 | 80 | Barnyardgrass plant response rating (0 to 100 scale) [13]: 70; Barnyardgrass plant response rating [13]: 40; Wheat plant response rating (0 to 100 scale) [14]: 0; Wheat plant response rating [14]: 0; Kochia plant response rating (0 to 100 scale) [15]: 60; Kochia plant response rating [15]: 40; Ragweed plant response rating (0 to 100 scale) [16]: 90; Ragweed plant response rating [16]: 80; Pigweed plant response rating (0 to 100 scale) [17]: 90; Pigweed plant response rating [17]: 60; Blackgrass plant response rating (0 to 100 scale) [18]: 80; Blackgrass plant response rating [18]: 70; Foxtail, Giant plant response rating (0 to 100 scale) [19]: 80; Foxtail, Giant plant response rating [19]: 60; Ryegrass, Italian plant response rating (0 to 100 scale) [20]: 20; Ryegrass, Italian plant response rating [20]: 30
3 | C#CCO/N=C(/c1c(O)c(C)nn(C)c1=O)c1cccc2ccccc12 [Compound 82, 5-hydroxy-2,6-dimethyl-4-[(E)-[(2-propyn-1-yloxy)imino]-1-naphthalenylmethyl]-3(2H)-pyridazinone] | 60 | 100 | 10 | 80 | 90 | 100 | 100 | 100 | 100 | 100 | 90 | 100 | 0 | 0 | 0 | 0 | 30 | 0 | 100 | 90 | Barnyardgrass plant response rating (0 to 100 scale) [13]: 80; Barnyardgrass plant response rating [13]: 50; Wheat plant response rating (0 to 100 scale) [14]: 80; Wheat plant response rating [14]: 50; Kochia plant response rating (0 to 100 scale) [15]: 90; Kochia plant response rating [15]: 80; Ragweed plant response rating (0 to 100 scale) [16]: 100; Ragweed plant response rating [16]: 90; Pigweed plant response rating (0 to 100 scale) [17]: 90; Pigweed plant response rating [17]: 70; Blackgrass plant response rating (0 to 100 scale) [18]: 100; Blackgrass plant response rating [18]: 90; Foxtail, Giant plant response rating (0 to 100 scale) [19]: 80; Foxtail, Giant plant response rating [19]: 70; Ryegrass, Italian plant response rating (0 to 100 scale) [20]: 80; Ryegrass, Italian plant response rating [20]: 80
4 | C#CCO/N=C(\c1c(O)c(C)nn(C)c1=O)c1cccc2ccccc12 [Compound 83, 5-hydroxy-2,6-dimethyl-4-[(Z)-[(2-propyn-1-yloxy)imino]-1-naphthalenylmethyl]-3(2H)-pyridazinone] | 80 | 100 | 20 | 100 | 100 | 100 | 100 | 100 | 90 | 100 | 80 | 100 | 0 | 0 | 75 | 70 | 40 | 20 | 100 | 90 | Barnyardgrass plant response rating (0 to 100 scale) [13]: 80; Barnyardgrass plant response rating [13]: 60; Wheat plant response rating (0 to 100 scale) [14]: 60; Wheat plant response rating [14]: 40; Kochia plant response rating (0 to 100 scale) [15]: 90; Kochia plant response rating [15]: 80; Ragweed plant response rating (0 to 100 scale) [16]: 100; Ragweed plant response rating [16]: 90; Pigweed plant response rating (0 to 100 scale) [17]: 90; Pigweed plant response rating [17]: 80; Blackgrass plant response rating (0 to 100 scale) [18]: 100; Blackgrass plant response rating [18]: 90; Foxtail, Giant plant response rating (0 to 100 scale) [19]: 80; Foxtail, Giant plant response rating [19]: 70; Ryegrass, Italian plant response rating (0 to 100 scale) [20]: 100; Ryegrass, Italian plant response rating [20]: 90
